Literature values, collected in patent US20090253744A1, “Acylated piperidine derivatives as melanocortin-4 receptor modulators” (priority 2006, published 2009).

What was measured:
erectile dysfunction = settings: in vivo
[1] = test system: males with psychogenic erectile dysfunction; settings: injected intramuscularly or subcutaneously

Molecule | effective in % of patients (erectile dysfunction) | response rate [1] [%]
CCCc1nn(C)c2c(=O)[nH]c(-c3cc(S(=O)(=O)N4CCN(C)CC4)ccc3OCC)nc12 [Sildenafil] | about 70% | –
Ac-Nle-c[Asp-His-DPhe-Arg-Trp-Lys]-NH2 [MT-II] | – | 75
